Test: SABRE polarization build-up and T1 relaxation dynamics in SABRE solvents
Assay type: physicochemical
Conditions: for 13C T1 decay / polarization build-up Tb: 0.4 μT
Protocol: CD3OD is widely used as the SABRE-reaction-hosting solvent because it provides convenient means of attaining high-field NMR spectrometer lock. However, non-deuterated polarization media may be preferred for biomedical applications. For this reason, systematic relaxation dynamics studies were performed comparing CD3OD, CH3OH, and C2H5OH for SABRE-SHEATH [1-^13C]pyruvate hyperpolarization, investigating relevant parameters for these solvents and for fixed concentrations of pyruvate, SABRE catalyst, and DMSO (30 mM, 6 mM, and 40 mM, respectively). However, the ethanol sample was prepared with only 6 mM pyruvate and 10% H2O due to limited solubility. The optimal Br was similar in all investigated samples (≈0.4 μT, FIG. 4A). […] (FIG. 4B). Thus, all the experiments described below were performed using these optimized Br and Tr parameters.
The polarization build-up (Tb) and decay (T1) at 0.4 μT were similar: Tb=13.7±0.6 s versus 19.3±0.6 s; and T1=26.0±0.4 s versus 29.1±0.8 s, respectively (FIGS. 4C, 4E). P13C values were also similar; in one representative example of polarization build-up, P13C was 7.8±0.1% vs. 8.5±0.1% for CH3OH and CD3OD media, respectively, FIG. 4D. […] For ethanol, 1.4-fold lower P13C values were obtained in this mixture compared to CH3OH and CD3OD, which is rationalized by a more efficient relaxation at the SABRE-SHEATH field, FIG. 4E.
Data fitting and error propagation for relaxation and polarization build-up data presented in FIGS. 4A-4I: Data in FIGS. 4C, 4F, 4H was fitted using mono-exponential functions (solid lines) and extracted values with error of polarization build-up or relaxation are presented in bar plots (FIGS. 4D, 4E, 4G, 4I).

## CC(=O)[13C](=O)O [[1-^13C]pyruvate]
30 mM in CD3OD
  13C T1 decay: 26.0 ± 0.4 s
  polarization build-up Tb: 13.7 ± 0.6 s
30 mM in CD3OD, 1.4 T
  13C T1 relaxation time: 86 ± 2 s
30 mM in CH3OH
  13C T1 decay: 29.1 ± 0.8 s
  polarization build-up Tb: 19.3 ± 0.6 s
30 mM in CH3OH, 1.4 T
  13C T1 relaxation time: 59.3 ± 0.8 s
60 mM in CH3OH, 1.4 T
  T1 relaxation time: 59.3 ± 0.5 s
60 mM in CH3OH, 300 nT
  T1 relaxation time: 34.6 ± 1.1 s
  polarization build-up time constant Tb: 22.0 ± 0.7 s
Dissolved in CH3OH:catalyst mixture, Earth's field
  1-13C T1: 46.5 ± 0.9 s
